Measurements: patent US11370816B2, “Histatins and method of use thereof” (THE BOARD OF TRUSTEES OF THE UNIVERSITY OF ILLINOIS, priority 2015, dated 2022)
Starred links: 1 amine or outer side, 2 acyl side, 3 side chain; linkers in the order of their positions; H or OH if unused. Non-standard residues stand in square brackets, D forms with d. No end group written: not given here. (CH2)6 = -(CH2)6- hydrocarbon linking residues, C(CCC[*:2])CC[*:1]; pS = N[C@@H](COP(=O)(O)O)C(=O)O

Key:
Candida albicans = settings: Jang, et al. (2008); cited from earlier work
[1] = Oudhoff, et al. (2008); cited from earlier work
[2] = system: human corneal epithelial cells; assay: Benzalkonium chloride (BAK) injury model, LDH release; format: cell-based; settings: 0.002% BAK
Description: Columns represent the mortality (mean±SD) of cells, total cellular death being 100% (Control).
One particularly useful model of dry eye disease and inflammatory ocular disease is the use of benzalkonium chloride (BAK) to induce cell death, inflammation and injury to ocular surfaces and corneal cells (Tressler, et al. (2011) Ocul. Surf. 9:140-58; Paimela, et al. (2012) Mol. Vis. 18:1189-1196). Briefly, human corneal epithelial cells were cultured under standard conditions. Cells were treated with native HTN5 (50 μM) or synthetic histatin (10 μM) in the presence or absence of 0.002% BAK. The permeability of cellular membranes following the exposures was determined by measuring the amount of released lactate dehydrogenase (LDH) enzyme from the cells. Maximum LDH release of cells was determined by lysing cells, and subsequently measuring the LDH from the culture medium. […] Accordingly, endogenous and synthetic histatins could be used to protect cells from injury, inflammation and cell death and are therefore of use in the treatment of dry eye disease.

[3] = system: Human umbilical vein endothelial cells (HUVECs); assay: Tube formation assay, VEGF-induced angiogenesis; format: cell-based; settings: VEGF 10 ng/mL, peptide 50 μM
Description: Tube formation assays were used to assess the anti-angiogenic property of synthetic histatin compared to native HTN1 and HTN2. Human umbilical vein endothelial cells (HUVECs) were suspended in diluted MATRIGEL for an overnight incubation and then subjected to a media change containing VEGF (10 ng/mL) (Goodwin (2007) Microvasc. Res. 74:172-83) alone or VEGF (10 ng/mL) in combination with HTN1, HTN2 or synthetic histatin (50 μM).

[4] = system: human corneal epithelium cells; assay: In vitro scratch assay (cell migration, wound closure); format: cell-based; settings: for Time to Closure: control no closure in 48 hours
From the text: A conventional in vitro scratch assay was used to measure cell migration in the presence of a synthetic histatin containing three metal binding domains from HTN5 and one wound healing domain (i.e., SEQ ID NO:29). A “scratch” was made in a monolayer of human corneal epithelium cells and time lapsed microscopy was used to capture images at the beginning and at regular intervals during cell migration to close the scratch.

MMP2 = molecular target: T1, MMP2 (Homo sapiens, UniProt P08253); assay: Zymography analysis of MMP2 inhibition; format: biochemical; settings: pro-MMP2 activated with APMA, varying amounts of peptide
T1 sequence (P08253 110-660): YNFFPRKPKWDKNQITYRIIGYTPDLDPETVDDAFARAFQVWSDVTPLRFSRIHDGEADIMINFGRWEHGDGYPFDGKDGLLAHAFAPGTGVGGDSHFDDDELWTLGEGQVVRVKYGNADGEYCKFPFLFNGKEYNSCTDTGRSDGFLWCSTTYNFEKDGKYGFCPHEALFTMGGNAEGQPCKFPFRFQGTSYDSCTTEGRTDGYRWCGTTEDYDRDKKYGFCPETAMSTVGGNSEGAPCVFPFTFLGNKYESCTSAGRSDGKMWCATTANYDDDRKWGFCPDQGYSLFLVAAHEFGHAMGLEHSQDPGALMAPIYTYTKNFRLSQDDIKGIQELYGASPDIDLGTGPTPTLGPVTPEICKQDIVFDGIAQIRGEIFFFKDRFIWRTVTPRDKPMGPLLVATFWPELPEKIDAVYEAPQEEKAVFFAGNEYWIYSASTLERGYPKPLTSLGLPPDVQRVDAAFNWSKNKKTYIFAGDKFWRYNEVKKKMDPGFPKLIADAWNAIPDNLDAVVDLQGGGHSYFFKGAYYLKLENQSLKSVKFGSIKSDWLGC
Description: FIG. 1 show zymographic analysis of synthetic histatin inhibitory activity. Experiments included pro-MMP2 (100 ng; “−Ve”); activation of Pro-MMP2 with APMA (1 mM; “+Ve”); inclusion of a classic matrix metalloproteinase inhibitor, GM6001 (200 nM; “Inh”); and varying amounts of a synthetic histatin containing three metal binding domains from endogenous HTN5 and a wound healing domain from endogenous HTN1 (“H-1”). The protein ladder is shown on the right.
Zymography analysis of a synthetic histatin containing three metal binding domains from HTN5 and one wound healing domain (i.e., SEQ ID NO:29) was carried out using conventional methods. See, e.g., Thomadaki, et al. (2013) Oral Dis. 19(8):781-8.

human corneal epithelium = assay: Gene expression changes after synthetic histatin application; format: cell-based; settings: synthetic histatin treatment
From the text: Pathophysiological analyses of dry eye disease indicate that the critical factors involved in the development of dry eye disease involve inflammatory pathways including Th17/IL-17, I-CAM, IL-8, TNFα/IL-1/IL-6/NFκB, IL-10, MMP9 (and other matrix metalloproteinases) and TLR4/HSP (Stevenson, et al. (2012) Arch. Ophthalmol. 130(1):90-100). In addition, it has been reported that Ephrin A is involved in the development of epitheliopathy, poor wound healing and corneal disease related to elevated sugar levels/diabetic and neuropathic ulcers of the ocular surface. Accordingly, it was determined what effect synthetic histatin application would have on the gene expression in human corneal epithelium. […] Th17/IL-17 pathway is a central and important pathway in dry eye disease (Stevenson, et al. (2012) Arch Ophthalmol. 130(1):90-100).

[5] = Oppenheim, et al. (2012); cited from earlier work

AKRHHGYKRKFH [P-113]
fungicidal activity (Candida albicans): exhibits fungicidal activity

DSHAKRHHGYKRKFHEKHHSHRGY [HTN5, endogenous (native) histatin 5, reference compound]
wound closure activity in vitro [1]: inactivity | cell death (released LDH) ([2]; 50 μM peptide): statistically significant reduction in cell death

DSHAKRHHGYKRKFHEKHHSHRGYRSNYLYDN [HTN3, endogenous (native) histatin 3]
wound closure activity in vitro [1]: exhibit wound closure activities in vitro

DSpHEKRHHGYRRKFHEKHHSHREFPFYGDYGSNYLYDN (D[pS]HEKRHHGYRRKFHEKHHSHREFPFYGDYGSNYLYDN) [HTN1, endogenous (native) histatin 1]
wound closure activity in vitro [1]: exhibit wound closure activities in vitro | formation of capillary-like structures / inhibition of angiogenesis [3]: inhibition of angiogenesis

HEKHH-(CH2)6-HEKHH-(CH2)6-HEKHH-(CH2)6-YGDYGSNYLYDN (HEKHH[(CH2)6]HEKHH[(CH2)6]HEKHH[(CH2)6]YGDYGSNYLYDN) [synthetic histatin]
Time to Closure ([4]; 1 μM synthetic histatin): 48 h | Time to Closure ([4]; 10 μM synthetic histatin): 22 h | wound healing (reduction in time to wound closure) ([4]; scratch in monolayer, time lapsed microscopy): notable enhancement of wound healing | inhibition of MMP2 activity (MMP2): inhibited MMP2 activity in a dose-dependent manner | formation of capillary-like structures / inhibition of angiogenesis [3]: did not form such structures | expression of genes related to MMP activity (human corneal epithelium): reduced | expression of several members of the TNFα/IL-1/IL-6/NFKB pathway (human corneal epithelium): significant reduced | genes of the IL-10 pathway (62 genes) affected (human corneal epithelium): 6 | genes of the TLR4/HSP pathway (54 genes) significantly affected (human corneal epithelium): 5 | genes of the Th17/IL-17 pathway (44 genes) with significant changes in gene expression (human corneal epithelium): 7 | cell death (released LDH) ([2]; 10 μM peptide): statistically significant reduction in cell death

RKFHEKHHSHREFPFYGDYGSNYLYDN [HTN2, endogenous (native) histatin 2]
formation of capillary-like structures / inhibition of angiogenesis [3]: inhibition of angiogenesis

RKFHEKHHSHRGYR [SEQ ID NO:53]
fungicidal activity [5]: exhibit fungicidal activity
